Source: patent US8163287B2, “Combination therapy of her expressing tumors” (Genentech, Inc., priority 2005, dated 2012)

Tests used:
[1] = tested on: human lung, breast and ovarian cancer xenograft models; experiment: Antitumor activity in human cancer xenograft models (26 tumor xenografts); assay type: in vivo, NMRI nu/nu nude mice; conditions: for tumors responsive to both erlotinib and pertuzumab: of 26 tumors (12%); for tumors that did not respond to treatment with either pertuzumab or erlotinib: of the 26 tumors tested (42%), pertuzumab i.p. 100 mg/kg, erlotinib orally 25 mg/kg
Text: (§1) The tumor models were established by implanting tumor tissues obtained from human patients into randomized NMRI nu/nu nude mice (Oncotest GmbH, Freiburg, Germany) and tumors were propagated until stable tumor growth behavior was observed. After removal of the tumor from the donor mice, the tumor was cut into fragments (2 mm diameter) and placed in RPMI 1640 culture medium until subcutaneous implantation in the mice. The tumor fragments (two per mouse) were transplanted by tweezers. The mice were monitored daily.
(§2) The substance was diluted with a buffer containing 10 mM L-histidine, 240 mM sucrose, 0.02% polysorbate 20 pH 6 (HCl). The solutions were prepared fresh daily. Erlotinib was delivered as a ready-to-use formulation dissolved in 6% captisol.
Erlotinib was administered orally (25 mg/kg). The control mice received the vehicle by the same procedure and on the same schedule as the test compound.
(§3) The antitumor effect was evaluated following maximum tumor inhibition versus the control group.
Tumor volumes were determined by two-dimensional measurement with a caliper at the day of randomization (day 0) and then 2-3 times weekly. The tumor volume was calculated using the following formula: Tumor Volume=(a×b^2)×0.5,
where a and b represent two perpendicular tumor diameters, a=length (longer diameter), b=width (shorter diameter). All mice of a treatment group were sacrificed when the tumors reached mean diameters of approximately 16 mm.
Relative tumor volumes (RTV) were calculated for each individual tumor, by dividing the tumor volume on day X (Vx) by the tumor volume on day 0 (V0) multiplied by 100%. The tumor volume of a treatment group was expressed as the median RTV of all mice of the group. Median RTV volumes were used for drawing growth curves and treatment evaluation.
Optimal tumor growth inhibition at a particular day within the experimental period was calculated from the median RTV values of the test versus control groups multiplied by 100% (T/C 100%).
Relative tumor volume (Tx/T0) was defined as the median relative tumor volume of the test group on day X divided by the medium relative tumor volume of the test group on day 0, multiplied by 100.
T/C % and Tx/T0 were used for activity rating of the levels of efficacy, which were defined as follows: […]

[2] = tested on: lung adenocarcinoma designated LXFA 629; experiment: Antitumor activity in the LXFA 629 xenograft; assay type: in vivo, NMRI nu/nu nude mice; conditions: each agent alone; pertuzumab i.p. 100 mg/kg, erlotinib orally 25 mg/kg
Text: as §1, §2
Erlotinib was administered orally (25 mg/kg). […]
as §3
Tumor volumes were determined by two-dimensional measurement with a caliper at the day of randomization (day 0) and then 2-3 times weekly. The tumor volume was calculated using the following formula: Tumor Volume=(a×b^2)×0.5, […]
Relative tumor volumes (RTV) were calculated for each individual tumor, by dividing the tumor volume on day X (Vx) by the tumor volume on day 0 (V0) multiplied by 100%. The tumor volume of a treatment group was expressed as the median RTV of all mice of the group. […]

[3] = cited from earlier work
[4] = tested on: incurable, locally advanced, recurrent or metastatic solid tumors; conditions: cited from earlier work

| Compound | NSCLC tumors that responded to erlotinib but not to pertuzumab ([1]; NSCLC only, of 21 (23%)) [tumors] | NSCLC tumors with no response to pertuzumab or erlotinib monotherapy ([1]; NSCLC only, out of the 21 tumors tested (43%)) [tumors] | tumors responsive to both erlotinib and pertuzumab ([1]; monotherapy) [tumors] | tumors moderately responsive to erlotinib, but not pertuzumab ([1]; monotherapy, of 26 tumors (27%)) [tumors] | tumors that did not respond to treatment with either pertuzumab or erlotinib ([1]; monotherapy) [tumors] | activity rating (response to monotherapy) [2] | NSCLC tumors that responded to pertuzumab but not erlotinib ([1]; NSCLC only, of 21 (14%)) [tumors] | pharmacokinetics (dose linearity) ([3]; doses of 2.0-15 mg/kg) | antibodies to pertuzumab ([3]; patients) | confirmed partial responses ([4]; Phase I, single agent) | tumor regression achieved ([4]; of 20 patients evaluable for response) [patients] | tolerability ([4]; patients, intravenously every 3 weeks) |
| --- | --- | --- | --- | --- | --- | --- | --- | --- | --- | --- | --- | --- |
| C#Cc1cccc(Nc2ncnc3cc(OCCOC)c(OCCOC)cc23)c1 [erlotinib, N-(3-ethynylphenyl)-6,7-bis(2-methoxyethoxy)-4-quinazolinamine] | 5 | 9 | 3 | 7 | 11 | moderate response |  |  |  |  |  |  |
| pertuzumab: antibody comprising the light and heavy chain amino acid sequences of SEQ ID NOS. 11 and 12; HER dimerization inhibitor |  |  | 3 |  | 11 |  | 3 | linear | not detected | Two | 3 | generally well tolerated |
